# From ChEMBL document CHEMBL1629466, “Synthesis and biological activity of some antitumor active derivatives from glycyrrhetinic acid” (Eur J Med Chem, 2010)
# The source made the active and inactive calls. The calls are words filed in the database; no cut-off is given here.
# Columns and labels:
# Assay type in all cases: functional, cell-based
# [1] = test system: HCT-116; experiment: Cytotoxicity against human HCT116 cells after 96 hrs by sulforhodamine B assay
# [2] = test system: SW-1736; experiment: Cytotoxicity against human SW1736 cells after 96 hrs by sulforhodamine B assay
# [3] = test system: HCT-8; experiment: Cytotoxicity against human HCT8 cells after 96 hrs by sulforhodamine B assay
# [4] = test system: HT-29; experiment: Cytotoxicity against human HT-29 cells after 96 hrs by sulforhodamine B assay
# [5] = test system: 8505C; experiment: Cytotoxicity against human 8505C cells after 96 hrs by sulforhodamine B assay
# [6] = Cytotoxicity against human A253 cells after 96 hrs by sulforhodamine B assay
# [7] = test system: FaDu; experiment: Cytotoxicity against human FADU cells after 96 hrs by sulforhodamine B assay
# [8] = Cytotoxicity against human 518A2 cells after 96 hrs by sulforhodamine B assay
# [9] = test system: A549; experiment: Cytotoxicity against human A549 cells after 96 hrs by sulforhodamine B assay
# [10] = Cytotoxicity against human Lipo cells after 96 hrs by sulforhodamine B assay
# [11] = test system: MCF7; experiment: Cytotoxicity against human MCF7 cells after 96 hrs by sulforhodamine B assay
# [12] = test system: A2780; experiment: Cytotoxicity against human A2780 cells after 96 hrs by sulforhodamine B assay
# [13] = test system: DLD-1; experiment: Cytotoxicity against human DLD1 cells after 96 hrs by sulforhodamine B assay
# [14] = test system: SW480; experiment: Cytotoxicity against human SW480 cells after 96 hrs by sulforhodamine B assay
# [15] = test system: A-431; experiment: Induction of apoptosis in human A431 cells assessed as DNA fragmentation at IC90 concentration after 24 hrs by gel electrophoresis analysis
# [16] = test system: A2780; experiment: Induction of apoptosis in human A2780 cells at IC90 concentration after 24 hrs by trypan blue exclusion assay
# [17] = test system: A-431; experiment: Induction of apoptosis in human A431 cells at IC90 concentration after 24 hrs by trypan blue exclusion assay
# [18] = test system: A2780; experiment: Induction of apoptosis in human A2780 cells assessed as DNA fragmentation at IC90 concentration after 24 hrs by gel electrophoresis analysis
SMILES,IC50 [1] [µmol],IC50 [2] [µmol],IC50 [3] [µmol],IC50 [4] [µmol],IC50 [5] [µmol],IC50 [6] [µmol],IC50 [7] [µmol],IC50 [8] [µmol],IC50 [9] [µmol],IC50 [10] [µmol],IC50 [11] [µmol],IC50 [12] [µmol],IC50 [13] [µmol],IC50 [14] [µmol],Activity [15],Activity [16],Activity [17],Activity [18]
COC(=O)[C@@]1(C)CC[C@]2(C)CC[C@]3(C)C(=CC(=O)[C@@H]4[C@@]5(C)CC[C@H](OC(=O)CNCCCN)C(C)(C)[C@@H]5CC[C@]43C)[C@@H]2C1,4.3,6.05,2.37,2.9,3.37,3.64,5.57,3.79,5.15,3.89,3.55,4.39,4.39,3.68,,,,
COC(=O)[C@@]1(C)CC[C@]2(C)CC[C@]3(C)C(=CC(=O)[C@@H]4[C@@]5(C)CC[C@H](OC(=O)CNCCCCN)C(C)(C)[C@@H]5CC[C@]43C)[C@@H]2C1,2.41,3.3,1.51,1.69,2.12,2.56,3.51,2.55,3.31,2.57,2.45,2.43,2.66,2.54,,,,
COC(=O)[C@@]1(C)CC[C@]2(C)CC[C@]3(C)C(=CC(=O)[C@@H]4[C@@]5(C)CC[C@H](O)C(C)(C)[C@@H]5CC[C@]43C)[C@@H]2C1,22.1,34.87,24.36,27.54,26.07,19.42,23.41,27.54,23.5,20.47,22.14,25.54,26.12,16.08,,,,
COC(=O)[C@@]1(C)CC[C@]2(C)CC[C@]3(C)C(=CC(=O)[C@@H]4[C@@]5(C)CC[C@H](OC(=O)CNCCCCCCCCN)C(C)(C)[C@@H]5CC[C@]43C)[C@@H]2C1,3.53,4.09,2.92,2.76,3.35,3.01,4.26,3.49,4.08,4.36,3.89,2.8,3.96,3.93,,,,
COC(=O)[C@@]1(C)CC[C@]2(C)CC[C@]3(C)C(=CC(=O)[C@@H]4[C@@]5(C)CC[C@H](OC(=O)CNCCCCCCN)C(C)(C)[C@@H]5CC[C@]43C)[C@@H]2C1,1.17,1.61,0.62,0.59,1.68,1.12,1.78,1.09,1.59,1.59,1.17,1.36,0.91,2.25,Active,Active,Active,Active
CC1(C)[C@@H](O)CC[C@]2(C)[C@H]3C(=O)C=C4[C@@H]5C[C@@](C)(C(=O)O)CC[C@]5(C)CC[C@@]4(C)[C@]3(C)CC[C@@H]12 [ENOXOLONE],78.83,76.93,78.85,80.09,86.5,80.78,84.55,83.92,82.76,81.44,84.7,74.57,81.21,86.8,,,,
COC(=O)[C@@]1(C)CC[C@]2(C)CC[C@]3(C)C(=CC(=O)[C@@H]4[C@@]5(C)CC[C@H](OC(=O)CNCCCCCN)C(C)(C)[C@@H]5CC[C@]43C)[C@@H]2C1,2.19,2.69,1.38,1.28,1.78,2.27,3.3,2.02,2.52,1.93,1.79,2,2.4,1.91,,,,
COC(=O)[C@@]1(C)CC[C@]2(C)CC[C@]3(C)C(=CC(=O)[C@@H]4[C@@]5(C)CC[C@H](OC(=O)CNCCCCCCCN)C(C)(C)[C@@H]5CC[C@]43C)[C@@H]2C1,1.7,2.24,0.89,0.86,2.13,1.74,2.2,1.27,2.21,1.44,0.98,1.14,1.25,2.24,,,,
CC1(C)[C@@H](OC(=O)CCl)CC[C@]2(C)[C@H]3C(=O)C=C4[C@@H]5C[C@@](C)(C(=O)O)CC[C@]5(C)CC[C@@]4(C)[C@]3(C)CC[C@@H]12,14.41,16.42,13.39,16.91,26.08,25.54,23.56,25.43,24.8,25.39,25.11,23.77,17.36,25.91,,,,
COC(=O)[C@@]1(C)CC[C@]2(C)CC[C@]3(C)C(=CC(=O)[C@@H]4[C@@]5(C)CC[C@H](OC(=O)CNCCCCCCCCCCN)C(C)(C)[C@@H]5CC[C@]43C)[C@@H]2C1,3.86,3.73,4.07,2.73,7.6,5.48,5.65,4.33,5.16,6.93,2.68,3.63,5.53,4.73,,,,
COC(=O)[C@@]1(C)CC[C@]2(C)CC[C@]3(C)C(=CC(=O)[C@@H]4[C@@]5(C)CC[C@H](OC(=O)CCl)C(C)(C)[C@@H]5CC[C@]43C)[C@@H]2C1,5.13,3.14,3.97,5.34,15.86,6.19,12.44,5.24,8.39,14.55,6.69,6.01,6.13,8.92,,,,
COC(=O)[C@@]1(C)CC[C@]2(C)CC[C@]3(C)C(=CC(=O)[C@@H]4[C@@]5(C)CC[C@H](OC(=O)CNCCCCCCCCCN)C(C)(C)[C@@H]5CC[C@]43C)[C@@H]2C1,3.44,3.3,2.42,2.06,6.18,4.65,5.54,3.12,2.23,5.48,3.33,3.3,4.5,5.74,,,,
